This note sets out measurements from patent US20250333745A1, “METHODS AND COMPOSITIONS FOR TREATMENT OF POLYCYSTIC KIDNEY DISEASE” (Regulus Therapeutics Inc., priority 2016, published 2025).

One data set concerns Pkd2-KO mice. Briefly: Previous study of tool anti-miR-17 in Pkd2-KO mice. To be noted: 20 mg/kg. Type of data set: in vivo, mouse. On the procedure: (§1) Previous studies using a research tool anti-miR-17 compound identified a role for miR-17 in PKD in two different models of PKD, the Pkd2-KO model (also known as the Pkhd1/cre; Pkd2^F/F model) and the Pcy model. The research tool modified oligonucleotide complementary to miR-17 was tested in mouse models of PKD. The anti-miR-17 compound was a fully phosphorothioated oligonucleotide 19 linked nucleosides in length (5′-CTGCACTGTAAGCACTTTG-3′; SEQ ID NO: 7), with DNA, 2′-MOE and S-cEt sugar moieties.
Pkd2-KO mice spontaneously develop polycystic kidney disease. Mice were treated with 20 mg/kg of tool anti-miR-17 compound or control oligonucleotide, or with PBS.

A further data set deals with miR-17 family. Briefly: In vitro assays of tool compound against miR-17 family. The protocol:
as §1

Data set [1] can be described thus: In vivo study of research tool compound (proinflammatory effect). The protocol:
Further, the research tool compound was not sufficiently efficacious for development as a pharmaceutical agent for the treatment of PKD. Accordingly, a screen was performed to identify inhibitors of one or more miR-17 family members that are sufficiently efficacious, convenient to administer, and safe for administration to subjects with PKD. An additional criterion was a sufficiently high kidney-to-liver delivery ratio, to enhance the proportion of anti-miR-17 compound that is delivered to the target organ.

A short description of data set [2]: Metabolic stability in liver homogenate, summary over species. The format is in vitro ADME. To be noted: mouse, monkey or human liver homogenate. On the procedure: Due to their reduced capacity for serum protein binding, which is a property that drives oligonucleotide distribution in the body, short oligonucleotides are not necessarily expected to have pharmacokinetic properties that make them suitable for use as drugs. RG4326 was incubated in mouse, monkey or human liver homogenate. The identity and concentration of RG4326 and metabolites was determined after a 24-hour incubation. RG4326 and metabolites were extracted using liquid-liquid extraction (LLE) and/or solid-phase extraction (SPE), which were then analyzed for identity and concentration using ion-pairing-reversed-phase high performance liquid chromatography coupled with time-of-flight mass spectrometry (IP—RP-HPLC-TOF).

Data set [3] is described as follows: Biochemical fluorescent binding assay (FBA). Conditions: fold change relative to control-treated samples. The protocol:
(§2) In in vitro assays, the potential for toxicity was assessed using a biochemical fluorescent binding assay (FBA) and a liver or kidney slice assay. The FBA is performed by incubating a fluorescent dye with each compound, and immediately measuring fluorescence. Highly fluorescent compounds have the potential to produce toxicity in vivo. The liver or kidney slice assay is performed by incubating a slice of tissue from a core liver sample isolated from rat. Following a 24-hour incubation, RNA is extracted from the tissue slice, and the expression levels of 18 pro-inflammatory genes are measured. An induction in pro-inflammatory gene expression indicates a potential for pro-inflammatory effects in vivo.
The potential for toxicity was assessed using a biochemical fluorescent binding assay (FBA). The FBA is performed by incubating a fluorescent dye with each compound, and immediately measuring fluorescence. Results are expressed as fold change (Linear FC) relative to control-treated samples. Highly fluorescent compounds have the potential to produce toxicity in vivo.

Data set [4] has as its system 18 pro-inflammatory genes. Briefly: Ex vivo kidney slice assay. Conditions: rat kidney slice; 24-hour incubation; relative to PBS. The format is cell-based. The protocol:
as §2
Ex vivo assays were performed with liver or kidney tissue slices. The liver or kidney slice assay is performed by incubating a slice of tissue from a core liver or kidney sample isolated from rat. Following a 24-hour incubation, RNA is extracted from the tissue slice, and the expression levels of 18 pro-inflammatory genes, including IFIT, are measured. A log 2 transformation of the fold change (Log2-FC) relative to PBS treatment was performed. An induction in pro-inflammatory gene expression indicates a potential for pro-inflammatory effects in vivo.

A short description of a further data set: Viscosity. The format is physicochemical. Conditions: approximately 150 mg/mL in water at 20° C. The protocol: RG4326 has the following sequence and chemical modification pattern: ASGSCMAFCFUFUMUSGS where nucleosides followed by subscript “M” are 2′-O-methyl nucleosides, nucleosides followed by subscript “F” are 2′-fluoro nucleosides, nucleosides followed by subscript “S” are S-cEt nucleosides, each cytosine is a non-methylated cytosine and all linkages are phosphorothioate linkages. […] Additionally, the viscosity of RG4326 was determined to be 6 cP at a concentration of approximately 150 mg/mL (in water at 20° C.), thus RG4326 in solution is suitable for administration by subcutaneous injection.

For “5′-CTGCACTGTAAGCACTTTG-3′ (all phosphorothioate, sugars by position and methylation of C not given here; DNA, 2'-MOE and S-cEt sugars) [Tool anti-miR-17, reference compound]”, in the data set on Pkd2-KO mice, the “BUN and expression of kidney injury mRNA biomarkers Kim1 and Nga1 (in words)” value was “significantly reduced”; the “serum creatinine level and cyst index (in words)” value is “trend toward reduced”. The “kidney-to-body weight ratio reduced relative to control treatment” value in the data set on Pkd2-KO mice (p=0.017) was determined as 17%. Also, the “inhibition of miR-17 family members (in words)” value with miR-17 family is “hybridizes to and inhibits all members of the miR-17 family”. Further, the “proinflammatory effect (in words)” value in data set [1] is on record as “slightly proinflammatory”.
For the molecule `COC1C(OP(=O)(S)OC[C@H]2O[C@@H](n3cnc4c(N)ncnc43)C(F)C2OP(=O)(S)OC[C@H]2O[C@@H](n3ccc(N)nc3=O)C(F)C2OP(=O)(S)OC[C@H]2O[C@@H](n3ccc(=O)[nH]c3=O)C(F)C2OP(=O)(S)OC[C@H]2O[C@@H](n3ccc(=O)[nH]c3=O)C(OC)C2OP(=O)(S)OC[C@]23O[C@@H](n4ccc(=O)[nH]c4=O)C(O[C@H]2C)C3OP(=O)(S)OC[C@]23O[C@@H](n4cnc5c(=O)[nH]c(N)nc54)C(O[C@H]2C)C3O)[C@@H](COP(=O)(S)OC2C3O[C@@H](C)[C@]2(COP(=O)(S)OC2C4O[C@@H](C)[C@]2(CO)O[C@H]4n2cnc4c(N)ncnc42)O[C@H]3n2cnc3c(=O)[nH]c(N)nc32)O[C@H]1n1ccc(N)nc1=O` (stereo in doubt) [RG4326, ASGSCMAFCFUFUMUSGS], the “parent compound remaining intact after the 24-hour incubation” value in data set [2] is “over 95%”. The “Biochemical Fluorescence Binding Assay Relative Fluorescence Unit (Linear FC)” value in data set [3] is 24.9 ± 3.1 Linear FC. Moreover, the “Ex Vivo Kidney Slices Assay Pro-Inflammatory Signature Score (Log2-FC)” value in data set [4] is reported as −0.30 ± 0.22 Log2-FC. In “Viscosity”, the viscosity is reported as 6 cP.

Broadly, the viscosity is the internal friction of a fluid under shear.
